2 molecules from ChEMBL document CHEMBL1142403, “Synthesis and anti-cancer activity of benzothiazole containing phthalimide on human carcinoma cell lines” (Bioorg Med Chem, 2008) can be followed below.

One assay relates to SK-HEP1. Kind of assay: Cytotoxicity against human SK-Hep1 cells assessed as reduction in cellular ATP level after 48 hrs. The conditions noted are these: SK-HEP1, 48 h, pooled result: one value given for 3 cell lines, strains, targets or settings. The class given is functional, cell-based.
Assay [1] has as its target T1, Caspase-3 (Homo sapiens) (UniProt P42574).
T1 sequence (whole entry): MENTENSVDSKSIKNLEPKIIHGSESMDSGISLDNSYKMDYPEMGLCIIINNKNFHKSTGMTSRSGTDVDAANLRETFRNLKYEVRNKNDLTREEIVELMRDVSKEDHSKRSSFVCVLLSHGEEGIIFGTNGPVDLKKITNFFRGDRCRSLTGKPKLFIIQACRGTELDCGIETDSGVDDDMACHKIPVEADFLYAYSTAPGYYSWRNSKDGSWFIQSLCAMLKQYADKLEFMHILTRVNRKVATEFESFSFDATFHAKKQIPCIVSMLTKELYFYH
Kind of assay: Activation of human caspase 3 in human CA46 cells at 110 uM after 48 hrs by PerkinElmer Trupoint assay. It is filed as cell-based.

The target in assay [2] is T1, Caspase-3 (Homo sapiens). Kind of assay: Activation of human caspase 3 in human SK-Hep1 cells at 110 uM after 48 hrs by PerkinElmer Trupoint assay. The class given is cell-based.

The source made the active and inactive calls. The rule behind the calls is not given here.

The IC50 is the concentration needed to halve the response being measured. As for `O=C1c2ccccc2C(=O)N1c1nc2ccc(OC(F)(F)F)cc2s1` [PHATHALIMIDE], in the assay with SK-HEP1, the concentration for half-maximal inhibition (IC50) came to 69 µM. The result at Caspase-3 (Homo sapiens) [1] and at Caspase-3 (Homo sapiens) [2] was Active.
For the molecule `C[C@@]12C(=O)N(c3nc4ccc(OC(F)(F)F)cc4s3)C(=O)[C@]1(C)[C@H]1CC[C@@H]2O1` [CANTHARIDIMIDE], in the assay with SK-HEP1, the IC50 is 15.2 µM.
